Laboratory results from ChEMBL document CHEMBL5727654 (2020).

Target: T1, Signal transducer and activator of transcription 1-alpha/beta (Homo sapiens, UniProt P42224)
T1 sequence (P42224 whole entry): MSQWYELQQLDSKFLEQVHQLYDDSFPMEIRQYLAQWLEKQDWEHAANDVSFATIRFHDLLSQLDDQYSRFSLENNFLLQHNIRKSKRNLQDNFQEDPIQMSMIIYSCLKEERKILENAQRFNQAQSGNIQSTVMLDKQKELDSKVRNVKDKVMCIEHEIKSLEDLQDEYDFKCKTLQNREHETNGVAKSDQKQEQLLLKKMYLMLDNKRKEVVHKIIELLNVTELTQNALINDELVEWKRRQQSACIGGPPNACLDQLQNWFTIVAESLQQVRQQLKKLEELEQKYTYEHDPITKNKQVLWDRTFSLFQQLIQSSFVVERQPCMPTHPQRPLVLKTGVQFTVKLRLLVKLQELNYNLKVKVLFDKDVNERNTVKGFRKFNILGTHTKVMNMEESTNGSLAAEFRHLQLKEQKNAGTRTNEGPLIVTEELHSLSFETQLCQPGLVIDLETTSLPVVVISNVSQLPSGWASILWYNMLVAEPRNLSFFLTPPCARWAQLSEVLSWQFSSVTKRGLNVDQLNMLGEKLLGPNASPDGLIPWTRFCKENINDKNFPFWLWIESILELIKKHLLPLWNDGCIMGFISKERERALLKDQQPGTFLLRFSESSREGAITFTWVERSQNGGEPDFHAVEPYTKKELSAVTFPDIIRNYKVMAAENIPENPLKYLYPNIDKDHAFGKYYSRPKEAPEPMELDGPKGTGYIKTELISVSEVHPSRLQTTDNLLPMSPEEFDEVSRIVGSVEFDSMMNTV
Test: Bioassay Evaluation: Compound samples (in 3-5 mg quantities) were evaluated in a variety of assays. All compound submissions were fully characterized (1H, 13C, IR, HRMS), satisfied purity criteria (≥95% LC/MC, ELS).
Type: single protein

In the case of `COc1ccc(C2=Nn3c(nnc3-c3[nH]nc4c3CCC4)SC2)cc1`, the IC50 is reported as 40.6 µM.
